Experimental data reported in patent publication US6602296B1, “Chemical supplementation of bone” (The University of Western Australia, priority 1997, dated 2003).

What was measured:
[1] = Antibiotic iontophoresis in sheep tibia, antibiotic concentration in bone samples; conditions: 1% solution, 100 volts
Procedure: Quantitative analysis was then carried out to test iontophoresis as a means of antibiotic delivery in allograft bone. Specimens of sheep tibia were prepared as described above. […] A potential difference of 100 volts was applied for 1 minute, 5 minutes or 10 minutes with controls being set up the same way for 10 minutes except no potential difference was applied. A recording of current passed for each specimen was made.
Each sample was then washed in water and dried. Samples from 10 the endosteal and periosteal surfaces were then taken by drilling the bone using a 3 mm low speed drill, in 10 positions on each surface, and crushed to a fine powder. To a known mass of each sample was added distilled water (2 ml) and the sample agitated using ultrasound. The sample was then centrifuged and the supernatant removed and the process repeated a further 2 times. The last wash was left to soak for 12 hours before centrifuging. […] The supernatant solutions were then analysed for antibiotic content; for gentamicin using Fluorescence Polarisation Immuno Assay (Abbot Axsym Analyser); and for flucloxacillin the assays were performed using High Performance Liquid Chromatography (HPLC) technique. From the levels in the supernatant solutions, the antibiotic concentrations in the bone samples were calculated. […]

[2] = tested on: Staphylococcus aureus; conditions: varies with different phage types; cited from earlier work

gentamicin Sulphate
plateau level in endosteal and periosteal specimens [1]: about 150 mg/Kg
minimum inhibitory concentration [2]: approximately 0.25 mg/L
